# Reference: patent US7271165B2, “Rifamycin analogs and uses thereof” (priority 2003, dated 2007)
# Columns and labels:
# [1] = system: S. aureus; assay: MIC assay, S. aureus; type: cell-based, Staphylococcus aureus
# [2] = system: S. pneumo.; assay: MIC assay, S. pneumo.; type: cell-based, Streptococcus pneumoniae
# [3] = system: E. faecalis; assay: MIC assay, E. faecalis; type: cell-based, Enterococcus faecalis
# [4] = system: H. flu; type: cell-based, H. influenza; conditions: H. flu
# [5] = system: E coli; assay: MIC assay, E coli; type: cell-based
molecule,measurement,setting,value
3′-hydroxy-5′-(4-ethylcarbamyl-1-piperidinyl)benzoxazinorifamycin [Compound 1],MIC (μg/mL) S. aureus,[1],0.008 µg/mL
same,MIC (μg/mL) S. pneumo.,[2],0.00025 µg/mL
same,MIC (μg/mL) E. faecalis,[3],2 µg/mL
same,MIC (μg/mL) H. flu,[4],2 µg/mL
same,MIC (μg/mL) E coli,[5],>8 µg/mL
"25-O-deacetyl-5′-[(8aR)octahydropyrrolo[1,2-a]pyrazin-2-yl]benzthiazinorifamycin [Compound 78]",MIC (μg/mL) S. aureus,[1],0.002 µg/mL
same,MIC (μg/mL) S. pneumo.,[2],0.00012 µg/mL
same,MIC (μg/mL) E. faecalis,[3],0.12 µg/mL
same,MIC (μg/mL) H. flu,[4],0.12 µg/mL
same,MIC (μg/mL) E coli,[5],4 µg/mL
"CCOC(=O)N1CCCC2CN(c3cc(O)c4nc5c6c7c8c(C)c(O)c6c(=O)c(c-5oc4c3)NC(=O)C(C)=CC=CC(C)C(O)C(C)C(O)C(C)C(O)C(C)C(OC)C=COC(C)(O8)C7=O)CC21 (mixture of isomers) [Compound 42, 25-O-deacetyl-3′-hydroxy-5′-[1-ethylcarbamyl-(4aR,7aR)-octahydro-6H-pyrrolo [3,4-b]pyridin-6-yl]benzoxazinorifamycin]",MIC (μg/mL) S. aureus,[1],0.008 µg/mL
same,MIC (μg/mL) S. pneumo.,[2],0.00012 µg/mL
same,MIC (μg/mL) E. faecalis,[3],2 µg/mL
same,MIC (μg/mL) H. flu,[4],0.5 µg/mL
same,MIC (μg/mL) E coli,[5],8 µg/mL
"CCOC(=O)N1CCCC2CN(c3cc(O)c4nc5c6c7c8c(C)c(O)c6c(=O)c(c-5oc4c3)NC(=O)C(C)=CC=CC(C)C(O)C(C)C(O)C(C)C(OC(C)=O)C(C)C(OC)C=COC(C)(O8)C7=O)CC21 (single isomer, unassigned) [Compound 40]",MIC (μg/mL) S. aureus,[1],0.06 µg/mL
same,MIC (μg/mL) S. pneumo.,[2],0.008 µg/mL
same,MIC (μg/mL) E. faecalis,[3],1 µg/mL
same,MIC (μg/mL) H. flu,[4],0.5 µg/mL
same,MIC (μg/mL) E coli,[5],>8 µg/mL
"COC1C=COC2(C)Oc3c(C)c(O)c4c(=O)c(c5oc6cc(N7CC8C(C7)C8NC(=O)OCC[Si](C)(C)C)cc(O)c6nc-5c4c3C2=O)NC(=O)C(C)=CC=CC(C)C(O)C(C)C(O)C(C)C(OC(C)=O)C1C [Compound 2, 3′-hydroxy-5′-[6-(2-trimethylsilyl)ethylcarbamyl-(1R,5S)-3-azabicyclo[3.1.0]hex-3-yl]benzoxazinorifamycin]",MIC (μg/mL) S. aureus,[1],1 µg/mL
same,MIC (μg/mL) S. pneumo.,[2],0.03 µg/mL
same,MIC (μg/mL) E. faecalis,[3],>8 µg/mL
same,MIC (μg/mL) H. flu,[4],>8 µg/mL
same,MIC (μg/mL) E coli,[5],>8 µg/mL
"CCOC(=O)NC1CCN(c2cc(O)c3nc4c5c6c7c(C)c(O)c5c(=O)c(c-4oc3c2)NC(=O)/C(C)=C\C=C\[C@H](C)[C@H](O)[C@@H](C)[C@@H](O)[C@@H](C)[C@H](O)[C@H](C)[C@@H](OC)/C=C/O[C@@](C)(O7)C6=O)CC1 [Compound 3, 25-O-deacetyl-3′-hydroxy-5′-(4-ethylcarbamyl-1-piperidinyl)benzoxazinorifamycin]",MIC (μg/mL) S. aureus,[1],0.03 µg/mL
same,MIC (μg/mL) S. pneumo.,[2],0.0005 µg/mL
same,MIC (μg/mL) E. faecalis,[3],0.12 µg/mL
same,MIC (μg/mL) H. flu,[4],0.25 µg/mL
same,MIC (μg/mL) E coli,[5],4 µg/mL
"COC1C=COC2(C)Oc3c(C)c(O)c4c(=O)c(c5oc6cc(N7CC8C(N)C8C7)cc(O)c6nc-5c4c3C2=O)NC(=O)C(C)=CC=CC(C)C(O)C(C)C(O)C(C)C(OC(C)=O)C1C [Compound 4, 3′-hydroxy-5′-[6-amino-(1R,5S)-3-azabicyclo[3.1.0]hex-3-yl]benzoxazinorifamycin]",MIC (μg/mL) S. aureus,[1],0.03 µg/mL
same,MIC (μg/mL) S. pneumo.,[2],0.00025 µg/mL
same,MIC (μg/mL) E. faecalis,[3],0.5 µg/mL
same,MIC (μg/mL) H. flu,[4],0.25 µg/mL
same,MIC (μg/mL) E coli,[5],>8 µg/mL
"CO[C@H]1/C=C/O[C@@]2(C)Oc3c(C)c(O)c4c(=O)c(c5oc6cc(N7C[C@@H]8CCCN[C@@H]8C7)cc(O)c6nc-5c4c3C2=O)NC(=O)/C(C)=C\C=C\[C@H](C)[C@H](O)[C@@H](C)[C@@H](O)[C@@H](C)[C@H](OC(C)=O)[C@@H]1C [Compound 5, 3′-hydroxy-5′-[(4aS,7aS)-octahydro-6H-pyrrolo[3,4-b]pyridin-6-yl]benzoxazinorifamycin]",MIC (μg/mL) S. aureus,[1],0.015 µg/mL
same,MIC (μg/mL) S. pneumo.,[2],0.00025 µg/mL
same,MIC (μg/mL) E. faecalis,[3],0.5 µg/mL
same,MIC (μg/mL) H. flu,[4],2 µg/mL
same,MIC (μg/mL) E coli,[5],8 µg/mL
"CO[C@H]1/C=C/O[C@@]2(C)Oc3c(C)c(O)c4c(=O)c(c5oc6cc(N7C[C@@H]8CCCN[C@@H]8C7)cc(O)c6nc-5c4c3C2=O)NC(=O)/C(C)=C\C=C\[C@H](C)[C@H](O)[C@@H](C)[C@@H](O)[C@@H](C)[C@H](O)[C@@H]1C [Compound 7, 25-O-deacetyl-3′-hydroxy-5′-[(4aS,7aS)-octahydro-6H-pyrrolo[3,4-b]pyridin-6-yl]benzoxazinorifamycin]",MIC (μg/mL) S. aureus,[1],0.12 µg/mL
same,MIC (μg/mL) S. pneumo.,[2],0.004 µg/mL
same,MIC (μg/mL) E. faecalis,[3],4 µg/mL
same,MIC (μg/mL) H. flu,[4],4 µg/mL
same,MIC (μg/mL) E coli,[5],>8 µg/mL
"CO[C@H]1/C=C/O[C@@]2(C)Oc3c(C)c(O)c4c(=O)c(c5oc6cc(N7CCC(N8CCOCC8)CC7)cc(O)c6nc-5c4c3C2=O)NC(=O)/C(C)=C\C=C\[C@H](C)[C@H](O)[C@@H](C)[C@@H](O)[C@@H](C)[C@H](OC(C)=O)[C@@H]1C [Compound 9, 3′-hydroxy-5′-(4-morpholinyl-1-piperidinyl)benzoxazinorifamycin]",MIC (μg/mL) S. aureus,[1],0.015 µg/mL
same,MIC (μg/mL) S. pneumo.,[2],0.001 µg/mL
same,MIC (μg/mL) E. faecalis,[3],2 µg/mL
same,MIC (μg/mL) H. flu,[4],2 µg/mL
same,MIC (μg/mL) E coli,[5],8 µg/mL
"CO[C@H]1/C=C/O[C@@]2(C)Oc3c(C)c(O)c4c(=O)c(c5oc6cc(N7CC8CCC(C7)N8)cc(O)c6nc-5c4c3C2=O)NC(=O)/C(C)=C\C=C\[C@H](C)[C@H](O)[C@@H](C)[C@@H](O)[C@@H](C)[C@H](OC(C)=O)[C@@H]1C [Compound 10, 3′-hydroxy-5′-(3,8-diazabicyclo[3.2.1]octan-3-yl)benzoxazinorifamycin]",MIC (μg/mL) S. aureus,[1],0.008 µg/mL
same,MIC (μg/mL) S. pneumo.,[2],0.00012 µg/mL
same,MIC (μg/mL) E. faecalis,[3],1 µg/mL
same,MIC (μg/mL) H. flu,[4],2 µg/mL
same,MIC (μg/mL) E coli,[5],>8 µg/mL
"CO[C@H]1/C=C/O[C@@]2(C)Oc3c(C)c(O)c4c(=O)c(c5oc6cc(N7CCC(N8CCOCC8)CC7)cc(O)c6nc-5c4c3C2=O)NC(=O)/C(C)=C\C=C\[C@H](C)[C@H](O)[C@@H](C)[C@@H](O)[C@@H](C)[C@H](O)[C@@H]1C [Compound 11, 25-O-deacetyl-3′-hydroxy-5′-(4-morpholinyl-1-piperidinyl)benzoxazinorifamycin]",MIC (μg/mL) S. aureus,[1],0.004 µg/mL
same,MIC (μg/mL) S. pneumo.,[2],0.00012 µg/mL
same,MIC (μg/mL) E. faecalis,[3],0.25 µg/mL
same,MIC (μg/mL) H. flu,[4],1 µg/mL
same,MIC (μg/mL) E coli,[5],4 µg/mL
"CO[C@H]1/C=C/O[C@@]2(C)Oc3c(C)c(O)c4c(=O)c(c5oc6cc(N7C[C@H]8CCCN[C@H]8C7)cc(O)c6nc-5c4c3C2=O)NC(=O)/C(C)=C\C=C\[C@H](C)[C@H](O)[C@@H](C)[C@@H](O)[C@@H](C)[C@H](OC(C)=O)[C@@H]1C [Compound 12, 3′-hydroxy-5′-[(4aR,7aR)-octahydro-6H-pyrrolo[3,4-b]pyridin-6-yl]benzoxazinorifamycin]",MIC (μg/mL) S. aureus,[1],0.004 µg/mL
same,MIC (μg/mL) S. pneumo.,[2],0.00025 µg/mL
same,MIC (μg/mL) E. faecalis,[3],0.12 µg/mL
same,MIC (μg/mL) H. flu,[4],0.25 µg/mL
same,MIC (μg/mL) E coli,[5],8 µg/mL
CO[C@H]1/C=C/O[C@@]2(C)Oc3c(C)c(O)c4c(=O)c(c5oc6cc(N7CCC(NC(=O)OCC(C)C)CC7)cc(O)c6nc-5c4c3C2=O)NC(=O)/C(C)=C\C=C\[C@H](C)[C@H](O)[C@@H](C)[C@@H](O)[C@@H](C)[C@H](OC(C)=O)[C@@H]1C [Compound 13],MIC (μg/mL) S. aureus,[1],0.008 µg/mL
same,MIC (μg/mL) S. pneumo.,[2],0.00012 µg/mL
same,MIC (μg/mL) E. faecalis,[3],0.5 µg/mL
same,MIC (μg/mL) H. flu,[4],2 µg/mL
same,MIC (μg/mL) E coli,[5],4 µg/mL
"CO[C@H]1/C=C/O[C@@]2(C)Oc3c(C)c(O)c4c(=O)c(c5oc6cc(N7C[C@H]8CCCN[C@H]8C7)cc(O)c6nc-5c4c3C2=O)NC(=O)/C(C)=C\C=C\[C@H](C)[C@H](O)[C@@H](C)[C@@H](O)[C@@H](C)[C@H](O)[C@@H]1C [Compound 15, 25-O-deacetyl-3′-hydroxy-5′-[(4aR,7aR)-octahydro-6H-pyrrolo[3,4-b]pyridin-6-yl]benzoxazinorifamycin]",MIC (μg/mL) S. aureus,[1],0.03 µg/mL
same,MIC (μg/mL) S. pneumo.,[2],0.002 µg/mL
same,MIC (μg/mL) E. faecalis,[3],0.25 µg/mL
same,MIC (μg/mL) H. flu,[4],1 µg/mL
same,MIC (μg/mL) E coli,[5],>8 µg/mL
COC1C=COC2(C)Oc3c(C)c(O)c4c(=O)c(c5oc6cc(N7CC(C)CC(C)C7)cc(O)c6nc-5c4c3C2=O)NC(=O)C(C)=CC=CC(C)C(O)C(C)C(O)C(C)C(O)C1C (stereo not shown) [Compound 113],MIC (μg/mL) S. aureus,[1],0.008 µg/mL
same,MIC (μg/mL) S. pneumo.,[2],0.002 µg/mL
same,MIC (μg/mL) E. faecalis,[3],1 µg/mL
same,MIC (μg/mL) H. flu,[4],0.12 µg/mL
CCc1cc(C)cc2nc3c4c5c6c(C)c(O)c4c(=O)c(c-3oc12)NC(=O)C(C)=CC=CC(C)C(O)C(C)C(O)C(C)C(O)C(C)C(OC)C=COC(C)(O6)C5=O (stereo not shown) [Compound 130],MIC (μg/mL) S. pneumo.,[2],0.25 µg/mL
same,MIC (μg/mL) E. faecalis,[3],1 µg/mL
same,MIC (μg/mL) E coli,[5],>8 µg/mL
